System: EcR-293 cells
Assay: MKL1 localization by immunofluorescence after LPA stimulation
Assay type: cell-based
Settings: 50 μm LPA, 20 min
Description: Cells were grown on 4-compartment plastic tissue culture dishes (Greiner Bio-One, Kremsmünster, Austria) and fixed with 100% methanol at −20° C. for 15 min. Anti-MKL1 total mAb hybridoma supernatant was diluted 1:4 in PBS and incubated on the cells for 1.5 h at RT. After washing with PBS, fluorescent secondary antibodies were applied for 1.5 h at RT to visualize the MKL1 staining (1:1000 in PBS). After washing, coverslips were mounted on the cells using ProLong Gold Antifade reagent (life Technologies/Invitrogen).
Oleoyl-α-lysophosphatidic acid (LPA) was purchased from Sigma-Aldrich (Buchs, Switzerland) and stock solutions were prepared in 1% BSA (Sigma-Aldrich)/PBS. EcR-293 cells stably overexpressing 5′UTR-MKL1_S or 5′UTR-MKL1_L were seeded on plastic dishes precoated with 0.4 mg/ml poly-L-lysine (Sigma-Aldrich) and starved overnight with D-MEM/0.3% FBS. After 18 h starvation, the cells were treated with 50 μm LPA for 0, 5, 20, or 60 min, and subsequently stained with anti-MKL1 total mAb (see immunofluorescence staining). After staining, MKL1 staining of strongly overexpressing cells was classified as predominantly cytosolic (nucleus clearly distinguishable as unstained), equally distributed, or predominantly nuclear (nucleus clearly distinguishable as stained).

Substance: Oleoyl-α-lysophosphatidic acid [LPA]
- cells showing nuclear staining (starved EcR-293 cells expressing MKL1_L): very few
- cells showing partial or full nuclear MKL1 accumulation (starved EcR-293 cells expressing MKL1_S): two thirds

From patent US20150218238A1, “TREATING DISEASES BY MODULATING A SPECIFIC ISOFORM OF MKL1” (NOVARTIS FORSCHUNGSSTIFTUNG, ZWEIGNIEDERLASSUNG FRIEDRICH …, priority 2012, published 2015)
